Results: US8247211B2, “Glycopeptide antibiotics” (American Cyanamid Company, priority 2001, dated 2012)
In brackets after ≈: the same amount, converted by molar mass.

Tests used:
Experiment in all cases: In vitro antibacterial evaluation: minimum inhibitory concentration (MIC), broth dilution method
Type in all cases: cell-based
Enterococcus sp. = test system: Enterococcus sp.
Method in brief: (§1)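 Using Muller-Hinton II […] and an inoculum of 5×10^5 CFU/mL, antibiotic dilutions from 64 down to 0.06 μg/mL were tested following NCCLS M7-A2. The MIC is the lowest concentration inhibiting growth, including in methicillin-, penicillin- or vancomycin-resistant clinical isolates.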

Escherichia coli = test system: Escherichia coli
Method in brief: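 Test strains, among them recent clinical isolates carrying methicillin, penicillin and/or vancomycin resistance, were inoculated at 5×10^5 CFU/mL. A broth dilution series spanning 64-0.06 μg/mL in Muller-Hinton II […] (NCCLS M7-A2) defined the MIC as the lowest growth-inhibiting concentration.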

Staphylococcus sp. = conditions: for MIC Staphylococcus aureus (ATCC 29213) / MIC Staphylococcus aureus (GC 1131) / MIC Staphylococcus aureus (GC 3051) / MIC Staphylococcus aureus (GC 3053) / MIC Staphylococcus aureus (GC 4541) / MIC Staphylococcus aureus (GC 4542) / MIC Staphylococcus aureus (GC 4544) / MIC Staphylococcus aureus (GC 4545): broth dilution, 18 hours at 35° C.
Method in brief: as §1

Streptococcus sp. = test system: Streptococcus sp.
Method in brief: as §1

[1] = broth dilution, inoculum 5×10^5 CFU/mL, 18 hours at 35° C.

CC(C)=CCCC(C)=CCOc1ccc(C2OCC3OC(OC4C(CO)OC(Oc5ccc(CC6NC(=O)C(C(C)c7ccccc7)NC(=O)CNC(=O)C(CO)NC(=O)C(C(O)C7CNC(=N)N7C7OC(CO)C(O)C(O)C7O)NC(=O)C(C(O)C7CNC(=N)N7)NC6=O)cc5)C(O)C4O)C(O)C(O)C3O2)cc1 (stereo not drawn) [Example 183, Cyclo[glycyl-β-methylphenylalanyl-O-[4-O-[4,6-O-[4-[(3,7-dimethylocta-2,6-dien-1-yl)oxy]-benzylidene]hexopyranosyl]hexopyranosyl]tyrosyl-3-(2-iminoimidazolidin-4-yl)seryl-3-(3-hexopyranosyl-2-iminoimidazolidin-4-yl)serylseryl]]
MIC Enterococcus avium (GC 4558) (Enterococcus sp.; [1]): 2 µg/mL (≈ 1.3 µM) | MIC Enterococcus faecalis (ATCC 29212) (Enterococcus sp.; [1]): 8 µg/mL (≈ 5.21 µM) | MIC Enterococcus faecalis (GC 2242) (Enterococcus sp.; [1]): 8 µg/mL (≈ 5.21 µM) | MIC Enterococcus faecalis (GC 2691) (Enterococcus sp.; [1]): 2 µg/mL (≈ 1.3 µM) | MIC Enterococcus faecalis (GC 3059) (Enterococcus sp.; [1]): 4 µg/mL (≈ 2.6 µM) | MIC Enterococcus faecalis (GC 4552) (Enterococcus sp.; [1]): 8 µg/mL (≈ 5.21 µM) | MIC Enterococcus faecalis (GC 4553) (Enterococcus sp.; [1]): 4 µg/mL (≈ 2.6 µM) | MIC Enterococcus faecalis (GC 4554) (Enterococcus sp.; [1]): 4 µg/mL (≈ 2.6 µM) | MIC Enterococcus faecalis (GC 6189) (Enterococcus sp.; [1]): 2 µg/mL (≈ 1.3 µM) | MIC Enterococcus faecium (GC 2243) (Enterococcus sp.; [1]): 2 µg/mL (≈ 1.3 µM) | MIC Enterococcus faecium (GC 4556) (Enterococcus sp.; [1]): 8 µg/mL (≈ 5.21 µM) | MIC Enterococcus faecium (GC 4557) (Enterococcus sp.; [1]): 4 µg/mL (≈ 2.6 µM) | MIC Enterococcus faecalis (ATCC 29212) (Enterococcus sp.; strain ATCC 29212): 8 µg/mL (≈ 5.21 µM) | MIC Enterococcus faecalis (GC 2242) (Enterococcus sp.; strain GC 2242): 8 µg/mL (≈ 5.21 µM) | MIC Enterococcus faecium (GC 2243) (Enterococcus sp.; strain GC 2243): 2 µg/mL (≈ 1.3 µM) | MIC Enterococcus faecalis (GC 2691) (Enterococcus sp.; strain GC 2691): 2 µg/mL (≈ 1.3 µM) | MIC Enterococcus faecalis (GC 3059) (Enterococcus sp.; strain GC 3059): 4 µg/mL (≈ 2.6 µM) | MIC Enterococcus faecalis (GC 4552) (Enterococcus sp.; strain GC 4552): 8 µg/mL (≈ 5.21 µM) | MIC Enterococcus faecalis (GC 4553) (Enterococcus sp.; strain GC 4553): 4 µg/mL (≈ 2.6 µM) | MIC Enterococcus faecalis (GC 4554) (Enterococcus sp.; strain GC 4554): 4 µg/mL (≈ 2.6 µM) | MIC Enterococcus faecium (GC 4556) (Enterococcus sp.; strain GC 4556): 8 µg/mL (≈ 5.21 µM) | MIC Enterococcus faecium (GC 4557) (Enterococcus sp.; strain GC 4557): 4 µg/mL (≈ 2.6 µM) | MIC Enterococcus avium (GC 4558) (Enterococcus sp.; strain GC 4558): 2 µg/mL (≈ 1.3 µM) | MIC Enterococcus faecalis (GC 6189) (Enterococcus sp.; strain GC 6189): 2 µg/mL (≈ 1.3 µM) | MIC Escherichia coli (ATCC 25922) (Escherichia coli; strain ATCC 25922): >64 µg/mL | MIC Escherichia coli (GC 4559) (Escherichia coli; strain GC 4559): >64 µg/mL | MIC Escherichi coli (GC 4560) (Escherichia coli; strain GC 4560): 4 µg/mL (≈ 2.6 µM) | MIC Staphylococcus aureus (ATCC 29213) (Staphylococcus sp.; 5×10^5 CFU/mL): 4 µg/mL (≈ 2.6 µM) | MIC Staphylococcus aureus (GC 1131) (Staphylococcus sp.; 5×10^5 CFU/mL): 8 µg/mL (≈ 5.21 µM) | MIC Staphylococcus aureus (GC 3051) (Staphylococcus sp.; 5×10^5 CFU/mL): 2 µg/mL (≈ 1.3 µM) | MIC Staphylococcus aureus (GC 3053) (Staphylococcus sp.; 5×10^5 CFU/mL): 2 µg/mL (≈ 1.3 µM) | MIC Staphylococcus aureus (GC 4541) (Staphylococcus sp.; 5×10^5 CFU/mL): 8 µg/mL (≈ 5.21 µM) | MIC Staphylococcus aureus (GC 4542) (Staphylococcus sp.; 5×10^5 CFU/mL): 4 µg/mL (≈ 2.6 µM) | MIC Staphylococcus aureus (GC 4544) (Staphylococcus sp.; 5×10^5 CFU/mL): 4 µg/mL (≈ 2.6 µM) | MIC Staphylococcus aureus (GC 4545) (Staphylococcus sp.; 5×10^5 CFU/mL): 4 µg/mL (≈ 2.6 µM) | MIC Staphylococcus aureus (ATCC 29213) (Staphylococcus sp.; strain ATCC 29213): 4 µg/mL (≈ 2.6 µM) | MIC Staphylococcus aureus (GC 1131) (Staphylococcus sp.; strain GC 1131): 8 µg/mL (≈ 5.21 µM) | MIC Staphylococcus aureus (GC 3051) (Staphylococcus sp.; strain GC 3051): 2 µg/mL (≈ 1.3 µM) | MIC Staphylococcus aureus (GC 3053) (Staphylococcus sp.; strain GC 3053): 2 µg/mL (≈ 1.3 µM) | MIC Staphylococcus aureus (GC 4541) (Staphylococcus sp.; strain GC 4541): 8 µg/mL (≈ 5.21 µM) | MIC Staphylococcus aureus (GC 4542) (Staphylococcus sp.; strain GC 4542): 4 µg/mL (≈ 2.6 µM) | MIC Staphylococcus aureus-SMITH (GC 4543) (Staphylococcus sp.; strain GC 4543): 4 µg/mL (≈ 2.6 µM) | MIC Staphylococcus aureus (GC 4544) (Staphylococcus sp.; strain GC 4544): 4 µg/mL (≈ 2.6 µM) | MIC Staphylococcus aureus (GC 4545) (Staphylococcus sp.; strain GC 4545): 4 µg/mL (≈ 2.6 µM) | MIC Staphylococcus haemolyticus (GC 4546) (Staphylococcus sp.; strain GC 4546): 8 µg/mL (≈ 5.21 µM) | MIC Coagulase Negative Staphylococcus (GC 4547) (Staphylococcus sp.; strain GC 4547): 4 µg/mL (≈ 2.6 µM) | MIC Coagulase Negative Staphylococcus (GC 4548) (Staphylococcus sp.; strain GC 4548): 2 µg/mL (≈ 1.3 µM) | MIC Coagulase Negative Staphylococcus (GC 4549) (Staphylococcus sp.; strain GC 4549): 4 µg/mL (≈ 2.6 µM) | MIC Coagulase Negative Staphylococcus (GC 4551) (Staphylococcus sp.; strain GC 4551): 4 µg/mL (≈ 2.6 µM) | MIC Coagulase Negative Staphylococcus (GC 6257) (Staphylococcus sp.; strain GC 6257): 2 µg/mL (≈ 1.3 µM) | MIC Streptococcus agalactiae (GC 4564) (Streptococcus sp.; [1]): <0.06 µg/mL | MIC Streptococcus pneumoniae (ATCC 6301) (Streptococcus sp.; [1]): <0.06 µg/mL | MIC Streptococcus pneumoniae (GC 1894) (Streptococcus sp.; [1]): <0.06 µg/mL | MIC Streptococcus pneumoniae (GC 4565) (Streptococcus sp.; [1]): <0.06 µg/mL | MIC Streptococcus pyogenes (GC 4563) (Streptococcus sp.; [1]): <0.06 µg/mL | MIC Streptococcus pneumoniae (ATCC 6301) (Streptococcus sp.; strain ATCC 6301): <0.06 µg/mL | MIC Streptococcus pneumoniae (GC 1894) (Streptococcus sp.; strain GC 1894): <0.06 µg/mL | MIC Streptococcus pyogenes (GC 4563) (Streptococcus sp.; strain GC 4563): <0.06 µg/mL | MIC Streptococcus agalactiae (GC 4564) (Streptococcus sp.; strain GC 4564): <0.06 µg/mL | MIC Streptococcus pneumoniae (GC 4565) (Streptococcus sp.; strain GC 4565): <0.06 µg/mL
